Measured values reported in patent publication US12286404B2, “Solid state forms of Mitapivat and process for preparation thereof” (TEVA PHARMACEUTICALS INTERNATIONAL GMBH, priority 2020, dated 2025).
Counter-ions that a name gives are not always drawn.

Legend:
Format in all cases: physicochemical
[1] = Storage stability under humidity/temperature conditions; details: for stability up to 80% RH: up to 80% RH at RT, for at least one week; for stability under regular conditions: 60% RH at RT; for stability under regular conditions / stability under accelerated conditions: for at least one month; for stability under accelerated conditions: 75% RH at 40° C.
[2] = Stability under stress conditions (heating, grinding, high pressure); details: for stability under stress conditions: heating, grinding and high pressure
[3] = Hygroscopicity

Molecule | stability up to 80% RH [1] | stability under grinding ([2]; grinding) | hygroscopicity [3] | stability under regular conditions [1] | stability under accelerated conditions [1] | stability under stress conditions [2]
Mitapivat phosphate [Form P1 of Mitapivat phosphate] | stable | stable | non-hygroscopic | – | – | –
O=C(c1ccc(NS(=O)(=O)c2cccc3cccnc23)cc1)N1CCN(CC2CC2)CC1 [Form I of Mitapivat HCl, Mitapivat HCl] | – | – | non-hygroscopic | stable | stable | stable
Mitapivat hemisulfate:ascorbic acid | – | – | non-hygroscopic | polymorphically and chemically stable | polymorphically and chemically stable | stable
O=C(c1ccc(NS(=O)(=O)c2cccc3cccnc23)cc1)N1CCN(CC2CC2)CC1 [Form III of Mitapivat HCl, Mitapivat HCl] | stable | – | – | – | – | –
